Test results reported in patent publication US20230102554A1 (GB002, INC., priority 2019, published 2023).

Legend:
[1] = target: T1, Human PDGFRα, cytoplasmic domain (GST-PDGFRα) (Homo sapiens, UniProt P16234); assay: Human PDGFRα biochemical inhibition assay (off-chip Mobility Shift Assay)
T1 construct: made in house

[2] = target: T2, Human PDGFRβ, cytoplasmic domain (GST-PDGFRβ) (Homo sapiens, UniProt P09619); assay: Human PDGFRβ biochemical inhibition assay (off-chip Mobility Shift Assay)
T2 construct: made in house
T2 sequence (P09619 with tags, fused parts or gaps): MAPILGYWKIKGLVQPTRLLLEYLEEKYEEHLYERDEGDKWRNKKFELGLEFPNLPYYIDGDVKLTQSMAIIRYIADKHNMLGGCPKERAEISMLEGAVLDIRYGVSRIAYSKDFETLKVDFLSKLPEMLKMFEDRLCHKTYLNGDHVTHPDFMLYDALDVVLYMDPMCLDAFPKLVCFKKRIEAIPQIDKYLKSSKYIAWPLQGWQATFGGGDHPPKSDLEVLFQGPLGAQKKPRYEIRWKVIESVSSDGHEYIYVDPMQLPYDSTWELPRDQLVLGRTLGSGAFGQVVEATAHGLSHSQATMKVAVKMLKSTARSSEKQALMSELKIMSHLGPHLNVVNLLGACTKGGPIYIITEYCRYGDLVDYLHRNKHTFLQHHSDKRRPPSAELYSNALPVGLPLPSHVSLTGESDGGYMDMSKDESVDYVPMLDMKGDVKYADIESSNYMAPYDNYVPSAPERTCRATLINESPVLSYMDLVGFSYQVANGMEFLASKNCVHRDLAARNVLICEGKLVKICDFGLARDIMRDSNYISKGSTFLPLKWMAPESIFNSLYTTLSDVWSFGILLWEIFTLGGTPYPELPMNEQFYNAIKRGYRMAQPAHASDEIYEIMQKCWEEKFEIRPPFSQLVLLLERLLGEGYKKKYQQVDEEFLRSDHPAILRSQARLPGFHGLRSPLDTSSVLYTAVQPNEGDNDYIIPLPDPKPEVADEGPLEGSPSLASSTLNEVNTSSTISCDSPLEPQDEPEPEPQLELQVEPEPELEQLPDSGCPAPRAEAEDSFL
Procedure, shortened: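 GST-tagged cytoplasmic domain (aa 557-1106) from baculovirus was incubated 1 h at room temperature with compound, CSKtide, ATP at Km and Mg²⁺ in HEPES buffer, pH 7.5. Phosphorylated and unphosphorylated peptide were separated by off-chip mobility shift, and the product ratio P/(P+S) gave percent inhibition.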

T1 sequence (P16234 550-1089 T674I): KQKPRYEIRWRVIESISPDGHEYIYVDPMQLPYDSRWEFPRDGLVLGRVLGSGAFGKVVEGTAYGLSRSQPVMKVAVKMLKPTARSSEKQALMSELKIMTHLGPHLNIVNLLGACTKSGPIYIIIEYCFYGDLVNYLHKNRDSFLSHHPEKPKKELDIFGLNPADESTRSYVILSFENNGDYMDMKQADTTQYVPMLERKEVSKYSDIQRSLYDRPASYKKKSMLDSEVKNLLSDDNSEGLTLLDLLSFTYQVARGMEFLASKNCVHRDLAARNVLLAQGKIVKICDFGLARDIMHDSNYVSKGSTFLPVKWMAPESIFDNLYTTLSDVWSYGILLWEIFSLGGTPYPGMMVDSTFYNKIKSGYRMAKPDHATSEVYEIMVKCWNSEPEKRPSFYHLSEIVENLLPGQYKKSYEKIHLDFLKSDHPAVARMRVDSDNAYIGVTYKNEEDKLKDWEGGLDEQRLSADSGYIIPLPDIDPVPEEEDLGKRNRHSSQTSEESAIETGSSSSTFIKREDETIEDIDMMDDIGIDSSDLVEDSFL

Cc1c[nH]c2ncc(N[C@@H](C)c3cccc(NC(=O)c4cnc(C5CC5)s4)c3)nc12 [Compound 571, (S)-2-cyclopropyl-N-(3-(1-((7-methyl-5H-pyrrolo[2,3-b]pyrazin-2-yl)amino)ethyl)phenyl)thiazole-5-carboxamide]
IC50 [1]: < 300 nM
IC50 [2]: < 300 nM

C[C@H](Nc1cnc2cn[nH]c2n1)c1cccc(NC(=O)c2cncc(CO)c2)c1 [Compound 92, (S)-N-(3-(1-((1H-pyrazolo[3,4-b]pyrazin-6-yl)amino)ethyl)phenyl)-5-(hydroxymethyl) nicotinamide]
IC50 [1]: < 300 nM
IC50 [2]: ≥ 1000 nM

C[C@H](Nc1cnc2cnn(C)c2n1)c1cccc(NC(=O)c2ccc3c(c2)CCCO3)c1 [Compound 71, (S)-N-(3-(1-((1-methyl-1H-pyrazolo[3,4-b]pyrazin-6-yl)amino)ethyl)phenyl)chromane-6-carboxamide]
IC50 [1]: < 300 nM
IC50 [2]: < 300 nM

CCn1cc2ncc(N[C@@H](C)c3cccc(NC(=O)c4cnc(C)c(C)c4)c3)nc2n1 [Compound 328, (S)-N-(3-(1-((2-ethyl-2H-pyrazolo[3,4-b]pyrazin-6-yl)amino)ethyl)phenyl)-5,6-dimethylnicotinamide]
IC50 [1]: < 300 nM
IC50 [2]: < 300 nM

CCn1cc2ncc(N[C@@H](C)c3cc(NC(=O)c4ccc(OC5CCN(C)CC5)c(Cl)c4)ccc3F)nc2n1 [Compound 430, (S)-3-chloro-N-(3-(1-((2-ethyl-2H-pyrazolo[3,4-b]pyrazin-6-yl)amino)ethyl)-4-fluorophenyl)-4-((1-methylpiperidin-4-yl)oxy)benzamide]
IC50 [1]: < 300 nM
IC50 [2]: < 300 nM

C[C@H](Nc1cnc2cc(C(F)F)sc2n1)c1cc(NC(=O)c2ccc(C(F)(F)F)nc2)ccc1F [Compound 618, (S)-N-(3-(1-((6-(difluoromethyl)thieno[2,3-b]pyrazin-3-yl)amino)ethyl)-4-fluorophenyl)-6-(trifluoromethyl)nicotinamide]
IC50 [1]: < 300 nM
IC50 [2]: < 300 nM

CC(C)n1cc(C(=O)Nc2cccc([C@H](C)Nc3cnc4cn[nH]c4n3)c2)cn1 [Compound 100, (S)-N-(3-(1-((1H-pyrazolo[3,4-b]pyrazin-6-yl)amino)ethyl)phenyl)-1-isopropyl-1H-pyrazole-4-carboxamide]
IC50 [1]: < 300 nM
IC50 [2]: < 300 nM

CCn1cc2ncc(N[C@@H](C)c3cccc(NC(=O)c4ccc(CN5CC(O)C5)c(C)c4)c3)nc2n1 [Compound 496, (S)-N-(3-(1-((2-ethyl-2H-pyrazolo[3,4-b]pyrazin-6-yl)amino)ethyl)phenyl)-4-((3-hydroxyazetidin-1-yl)methyl)-3-methylbenzamide]
IC50 [1]: < 300 nM
IC50 [2]: 300 to 1000 nM

CCn1cc2ncc(N[C@@H](C)c3cc(NC(=O)c4cnc(NC5CC5)c(C)c4)ccc3C)nc2n1 [Compound 515, (S)-6-(cyclopropylamino)-N-(3-(1-((2-ethyl-2H-pyrazolo[3,4-b]pyrazin-6-yl)amino)ethyl)-4-methylphenyl)-5-methylnicotinamide]
IC50 [1]: < 300 nM
IC50 [2]: < 300 nM

CCn1cc2ncc(N[C@@H](C)c3cccc(NC(=O)c4ccc(N5CCOCC5)nc4)c3)nc2n1 [Compound 372, (S)-N-(3-(1-((2-ethyl-2H-pyrazolo[3,4-b]pyrazin-6-yl)amino)ethyl)phenyl)-6-morpholinonicotinamide]
IC50 [1]: 300 to 1000 nM
IC50 [2]: ≥ 1000 nM

Cc1cncc(C(=O)Nc2cccc([C@H](C)Nc3cnc4cn[nH]c4n3)c2)c1 [Compound 90, (S)-N-(3-(1-((1H-pyrazolo[3,4-b]pyrazin-6-yl)amino)ethyl)phenyl)-5-methylnicotinamide]
IC50 [1]: < 300 nM
IC50 [2]: < 300 nM

CCn1cc2ncc(N[C@@H](C)c3cccc(NC(=O)Nc4ccc(C(F)(F)F)nc4)c3)nc2n1 [Compound 736, (S)-1-(3-(1-((2-ethyl-2H-pyrazolo[3,4-b]pyrazin-6-yl)amino)ethyl)phenyl)-3-(6-(trifluoromethyl)pyridin-3-yl) urea]
IC50 [1]: < 300 nM
IC50 [2]: < 300 nM

CCn1cc2ncc(N[C@@H](C)c3cc(NC(=O)Cc4cnc(C)c(F)c4)ccc3C)nc2n1 [Compound 707, (S)-N-(3-(1-((2-ethyl-2H-pyrazolo[3,4-b]pyrazin-6-yl)amino)ethyl)-4-methylphenyl)-2-(5-fluoro-6-methylpyridin-3-yl)acetamide]
IC50 [1]: < 300 nM
IC50 [2]: 300 to 1000 nM

Cc1cncc(C(=O)Nc2cccc([C@H](C)Nc3cnc4ccoc4c3)c2)c1 [Compound 604, (S)-N-(3-(1-(furo[3,2-b]pyridin-6-ylamino)ethyl)phenyl)-5-methylnicotinamide]
IC50 [1]: < 300 nM
IC50 [2]: 300 to 1000 nM

CCc1cncc(C(=O)Nc2cccc([C@H](C)Nc3cnc4cnn(C)c4n3)c2)c1 [Compound 101]
IC50 [1]: < 300 nM
IC50 [2]: < 300 nM

CCn1cc2ncc(N[C@@H](C)c3cccc(NC(=O)c4ccc(CN5CC[C@@H](O)C5)c(Cl)c4)c3)nc2n1 [Compound 483, 3-chloro-N-(3-((S)-1-((2-ethyl-2H-pyrazolo[3,4-b]pyrazin-6-yl)amino)ethyl)phenyl)-4-(((R)-3-hydroxypyrrolidin-1-yl)methyl) benzamide]
IC50 [1]: < 300 nM
IC50 [2]: < 300 nM

CCn1cc2ncc(N[C@@H](C)c3cccc(NC(=O)c4ccc(N(C)C)c(C)c4)c3)nc2n1 [Compound 384, (S)-4-(dimethylamino)-N-(3-(1-((2-ethyl-2H-pyrazolo[3,4-b]pyrazin-6-yl)amino)ethyl)phenyl)-3-methylbenzamide]
IC50 [1]: < 300 nM
IC50 [2]: < 300 nM

CCn1cc2ncc(N[C@@H](C)c3cccc(NC(=O)c4ccc(CN5CCCC5)c(C(F)(F)F)c4)c3)nc2n1 [Compound 425, (S)-N-(3-(1-((2-ethyl-2H-pyrazolo[3,4-b]pyrazin-6-yl)amino)ethyl)phenyl)-4-(pyrrolidin-1-ylmethyl)-3-(trifluoromethyl)benzamide]
IC50 [1]: < 300 nM
IC50 [2]: < 300 nM

CCc1cc2ncc(N[C@@H](C)c3cc(NC(=O)c4ccc(C(F)(F)F)nc4)ccc3F)nc2o1 [Compound 619, (S)-N-(3-(1-((6-ethylfuro[2,3-b]pyrazin-3-yl)amino)ethyl)-4-fluorophenyl)-6-(trifluoromethyl)nicotinamide]
IC50 [1]: < 300 nM
IC50 [2]: < 300 nM

C[C@H](Nc1cnc2cnn(C)c2n1)c1cccc(NC(=O)N2CCc3ccccc3C2)c1 [Compound 55, (S)-N-(3-(1-((1-methyl-1H-pyrazolo[3,4-b]pyrazin-6-yl)amino)ethyl)phenyl)-3,4-dihydroisoquinoline-2(1H)-carboxamide]
IC50 [1]: < 300 nM
IC50 [2]: < 300 nM

C[C@H](Nc1cnc2cnn(C)c2n1)c1cccc(NC(=O)C2CC2C(F)(F)F)c1 (stereo partly drawn) [Compound 52, N-(3-((S)-1-((1-methyl-1H-pyrazolo[3,4-b]pyrazin-6-yl)amino)ethyl)phenyl)-2-(trifluoromethyl)cyclopropane-1-carboxamide]
IC50 [1]: 300 to 1000 nM
IC50 [2]: ≥ 1000 nM

Cc1cc2ncc(N[C@@H](C)c3cc(NC(=O)c4cnn(C5CCC5)c4)ccc3F)nc2s1 [Compound 613, (S)-1-cyclobutyl-N-(4-fluoro-3-(1-((6-methylthieno[2,3-b]pyrazin-3-yl)amino)ethyl)phenyl)-1H-pyrazole-4-carboxamide]
IC50 [1]: < 300 nM
IC50 [2]: < 300 nM

CCc1c[nH]c2ncc(N[C@@H](C)c3cccc(NC(=O)c4cncc(C)c4)c3)nc12 [Compound 564, (S)-N-(3-(1-((7-ethyl-5H-pyrrolo[2,3-b]pyrazin-2-yl)amino)ethyl)phenyl)-5-methylnicotinamide]
IC50 [1]: < 300 nM
IC50 [2]: < 300 nM
